Converted amounts (≈) assume the structure as drawn. “And” between values parts separate entries of the source, which are not always exact repeats. Equal values may be shown once. Read-outs that look alike come from different tables or passages of the source. Residues, ends and D or L forms follow the SMILES beside them.
Columns and labels:
sheep red blood cells = assay: Hemolysis assay
Protocol: To evaluate the hemolysis effects of peptides, red blood hemolysis was performed as described with minimum modifications. Sterile defibrated sheep blood was purchased from Guangzhou Hongquan Biotechnology Co., LTD. Blood cells were adjusted to 2 × 10^9 cells/mL in phosphate-buffered saline (PBS, pH 7.4). In total, 98 μL sheep red blood cell suspension was incubated with 2 μL of peptides at different concentrations ranging from 3.13 to 100 µM. After incubation for 1 h at 37 °C, the cells were centrifuged and the absorbance of the supernatant was measured at 450 nm. The value for “zero hemolysis” was determined using sterile PBS, while 100% hemolysis was established using 1.5% (v/v) Triton X-100. Hemolysis of testing sample was calculated as the percentage of Triton X-100-induced hemolysis.

[1] = test system: Gram-negative bacterial strains; assay type: cell-based; settings: range over the strains
Excerpt: (§1) Bacteria were cultivated in Luria-Bertani (LB) broth.

HEK293T cells = assay: MTT cytotoxicity assay; assay type: cell-based, human; settings: for percent cell viability: HEK293T
Protocol: (§2) To determine the cytotoxicity of the peptides, we used the MTT (3-(4,5)-dimethylthiahiazo (-z-y1)-3,5-di-phenytetrazoliumromide) dye reduction assay against HEK293T cells. In brief, the 100 μL of cells in 96-well plate were incubated for 24 h at 37 °C, 5% CO2, and then peptide solutions (concentrations ranging from 100 to 0.39 μM) were added and further incubated for 72 h. MTT solution (5 mg/mL) was added and further incubated for 4 h. After incubation, the precipitated MTT formazan crystal was dissolved by addition of dimethyl sulfoxide (DMSO). […]

MTT cytotoxicity assay = assay type: cell-based, human; settings: human
Protocol: as §2

MRSA = assay type: cell-based, Staphylococcus aureus
Excerpt: as §1

K. pneumoniae 3026 = assay type: cell-based, Klebsiella pneumoniae
Excerpt: as §1

[2] = test system: K. pneumoniae ATCC 700603; assay type: cell-based, Klebsiella pneumoniae
Excerpt: as §1

Acinetobacter baumannii = assay type: cell-based
Excerpt: as §1

A. baumannii 1318 = assay type: cell-based, Acinetobacter baumannii
Excerpt: as §1

A. baumannii 1337 = assay type: cell-based, Acinetobacter baumannii
Excerpt: as §1

MRSA USA 300 = assay type: cell-based, Staphylococcus aureus
Excerpt: as §1

MRSA ATCC 43300 = assay type: cell-based, Staphylococcus aureus; settings: ATCC 43300
Excerpt: as §1

MRSA 3393 = assay type: cell-based, Staphylococcus aureus; settings: 3393
Excerpt: as §1

E. coli S = assay type: cell-based, Escherichia coli
Excerpt: as §1

E. coli ATCC 25922 = assay type: cell-based, Escherichia coli
Excerpt: as §1

[3] = test system: all tested bacterial strains; settings: range over all strains
Excerpt: The bacterial strains used in this study included the Gram-positive bacteria methicillin resistant Staphylococcus aureus (MRSA) (MRSA ATCC 43300 and 2 clinically isolated strains presented as MRSA USA 300 and MRSA 3393), Gram-negative bacteria Escherichia coli (E. coli ATCC 25922, and 1 clinically isolated strain presented as E. coli S), Klebsiella pneumoniae (K. pneumoniae ATCC 700603, and 1 clinically isolated strain presented as K. pneumoniae 3026), and Acinetobacter baumannii (2 clinically isolated strains presented as A. baumannii 1318 and A. baumannii 1337). Bacteria were cultivated in Luria-Bertani (LB) broth.
The Clinical and Laboratory Standards Institute (CLSI)-defined broth microdilution testing method (M07, 11th edition, 2018) was used to determine MICs for peptides. Briefly, the concentrations of the peptides and ciprofloxacin in the assay wells ranged from 100 μM to 0.01 μM as a 11-point dose response plated as a 2-fold dilution series across the wells of the plate in duplicate for each independent biological replicate. Bacterial susceptibility assays were performed in Cation-Adjusted Mueller Hinton Broth (CAMHB), and using a final cell density of 5 × 10^6 CFU/mL for bacteria[36]. Final assay volumes were 100 μL per well with MICs determined by measuring absorbance at 595 nm with a microplate reader following 18–20 h incubation at 37 °C. […]

[4] = HEK293T cells, OD450, cytotoxicity (Fig 2a), replicates

CC[C@H](C)[C@H](NC(=O)[C@H](CCCNC(=N)N)NC(=O)[C@H](CO)NC(=O)[C@H](CC(C)C)NC(=O)[C@H](Cc1ccccc1)NC(=O)[C@H](Cc1ccccc1)NC(=O)[C@@H](N)Cc1ccccc1)C(=O)N[C@@H](Cc1ccccc1)C(N)=O [SHf] (H-FFFLSRIF-NH2; N-terminus assumed)
OD450, hemolysis (Fig 2b), replicates (sheep red blood cells; 3.13 µM): 0.01725 and 0.01686 and 0.01568 and 0.01738 and 0.01699 and 0.0158
OD450, hemolysis (Fig 2b), replicates (sheep red blood cells; 6.25 µM): 0.01882 and 0.01529 and 0.01725 and 0.01896 and 0.01541 and 0.01738
OD450, hemolysis (Fig 2b), replicates (sheep red blood cells; 12.5 µM): 0.01725 and 0.01803 and 0.01764 and 0.01738 and 0.01817 and 0.01777
OD450, hemolysis (Fig 2b), replicates (sheep red blood cells; 25 µM): 0.01921 (2×) and 0.01764 and 0.01936 (2×) and 0.01777
OD450, hemolysis (Fig 2b), replicates (sheep red blood cells; 50 µM): 0.02038 and 0.02156 and 0.01921 and 0.02054 and 0.02173 and 0.01936
OD450, hemolysis (Fig 2b), replicates (sheep red blood cells; 100 µM): 0.01999 and 0.02234 and 0.02195 and 0.02014 and 0.02252 and 0.02212
hemolytic activity (in words) (sheep red blood cells; sheep red blood cells, 3.13–100 μM): did not present hemolytic activity
HC10 (concentration inducing 10% hemolysis) (sheep red blood cells; sheep red blood cells, 1 h at 37 °C): > 100.0 µM
MICs against the tested Gram-negative bacterial strains [1]: > 100 µM
percent cell viability (HEK293T cells; 0.39 µM): 94.1313 and 97.2791
percent cell viability (HEK293T cells; 0.78 µM): 95.9839 and 98.206
percent cell viability (HEK293T cells; 1.57 µM): 94.1313 and 96.7238
percent cell viability (HEK293T cells; 3.13 µM): 98.2056
percent cell viability (HEK293T cells; 6.25 µM): 98.9467 and 92.2795
percent cell viability (HEK293T cells; 12.5 µM): 99.6874 and 99.3163
percent cell viability (HEK293T cells; 25 µM): 98.9463 and 99.3171
percent cell viability (HEK293T cells; 50 µM): 91.54 and 92.6507
percent cell viability (HEK293T cells; 100 µM): 21.5425 and 18.5796
viability at 72 h, 0.39 µM (MTT cytotoxicity assay; HEK293T cells, HEK293T, 0.39 µM, read-out: OD450, cytotoxicity (Fig 2a), replicates): 99%
viability at 72 h, 0.78 µM (MTT cytotoxicity assay; HEK293T cells, HEK293T, 0.78 µM, read-out: OD450, cytotoxicity (Fig 2a), replicates): 90.4%
viability at 72 h, 1.57 µM (MTT cytotoxicity assay; HEK293T cells, HEK293T, 1.57 µM, read-out: OD450, cytotoxicity (Fig 2a), replicates): 97.8%
viability at 72 h, 3.13 µM (MTT cytotoxicity assay; HEK293T cells, HEK293T, 3.13 µM, read-out: OD450, cytotoxicity (Fig 2a), replicates): 100%
viability at 72 h, 6.25 µM (MTT cytotoxicity assay; HEK293T cells, HEK293T, 6.25 µM, read-out: OD450, cytotoxicity (Fig 2a), replicates): 92.7%
viability at 72 h, 12.5 µM (MTT cytotoxicity assay; HEK293T cells, HEK293T, 12.5 µM, read-out: OD450, cytotoxicity (Fig 2a), replicates): 93.4%
viability at 72 h, 25 µM (MTT cytotoxicity assay; HEK293T cells, HEK293T, 25 µM, read-out: OD450, cytotoxicity (Fig 2a), replicates): 94.9%
viability at 72 h, 50 µM (MTT cytotoxicity assay; HEK293T cells, HEK293T, 50 µM, read-out: OD450, cytotoxicity (Fig 2a), replicates): 92.3%
viability at 72 h, 100 µM (MTT cytotoxicity assay; HEK293T cells, HEK293T, 100 µM, read-out: OD450, cytotoxicity (Fig 2a), replicates): 27.1%
IC50 at 72 h (MTT cytotoxicity assay; HEK293T, MTT, 72 h, read-out: IC50, mammalian cell cytotoxicity): 59 µM
MICs against MRSA (MRSA; range over the MRSA strains): 50 to 100 µM

CC[C@H](C)[C@H](NC(=O)[C@H](CCCNC(=N)N)NC(=O)[C@H](CCCNC(=N)N)NC(=O)[C@H](CC(C)C)NC(=O)[C@@H](N)Cc1ccccc1)C(=O)N[C@@H](Cc1ccccc1)C(=O)N[C@@H](Cc1ccccc1)C(=O)N[C@@H](Cc1ccccc1)C(=O)N[C@@H](Cc1ccccc1)C(N)=O [HT1] (H-FLRRIFFFF-NH2)
HC10 (concentration inducing 10% hemolysis) (sheep red blood cells; red cells of sheep, 1 h): 25.0 µM
MIC Gram- K. p 3026 (K. pneumoniae 3026): > 100 µM
MIC Gram- K. p ATCC 700603 [2]: > 100 µM
MIC against Gram-negative Acinetobacter baumannii (Acinetobacter baumannii): 25 µM (≈ 32.3 µg/mL)
MIC Gram- A. b 1318 (A. baumannii 1318): 25 µM (≈ 32.3 µg/mL)
MIC Gram- A. b 1337 (A. baumannii 1337): 25 µM (≈ 32.3 µg/mL)
toxicity / cytotoxicity against HEK293T cells (in words) (HEK293T cells): high toxicity
IC50 at 72 h (MTT cytotoxicity assay): 2.7 µM
viability at 72 h, 0.39 µM (MTT cytotoxicity assay; [4]): 93.6%
viability at 72 h, 0.78 µM (MTT cytotoxicity assay; [4]): 87.3%
viability at 72 h, 1.57 µM (MTT cytotoxicity assay; [4]): 78%
viability at 72 h, 3.13 µM (MTT cytotoxicity assay; [4]): 30.5%
viability at 72 h, 12.5 µM (MTT cytotoxicity assay; [4]): 0.557%
viability at 72 h, 25 µM (MTT cytotoxicity assay; [4]): 1.3%
MIC Gram+ MRSA USA 300 (MRSA USA 300): 6.25 µM (≈ 8.07 µg/mL)
MIC Gram+ MRSA ATCC 43300 (MRSA ATCC 43300): 3.13 µM (≈ 4.04 µg/mL)
MIC Gram+ MRSA 3393 (MRSA 3393): 6.25 µM (≈ 8.07 µg/mL)
MICs against MRSA (MRSA): 3.13 to 6.25 µM
MIC Gram- E. coli S (E. coli S): 12.5 µM (≈ 16.1 µg/mL)
MIC Gram- E. coli ATCC 25922 (E. coli ATCC 25922): 25 µM (≈ 32.3 µg/mL)

CC[C@H](C)[C@H](NC(=O)[C@H](CCCNC(=N)N)NC(=O)[C@H](CCCNC(=N)N)NC(=O)[C@H](CC(C)C)NC(=O)[C@H](Cc1ccccc1)NC(=O)[C@@H](N)CCCNC(=N)N)C(=O)N[C@@H](Cc1ccccc1)C(=O)N[C@@H](CCCNC(=N)N)C(=O)N[C@@H](Cc1ccccc1)C(=O)N[C@@H](Cc1ccccc1)C(=O)N[C@@H](Cc1ccccc1)C(N)=O [HT4] (H-RFLRRIFRFFF-NH2)
HC10 (concentration inducing 10% hemolysis) (sheep red blood cells; red cells of sheep, 1 h): 12.5 µM
MIC Gram- K. p 3026 (K. pneumoniae 3026): 12.5 µM (≈ 20 µg/mL)
MIC Gram- K. p ATCC 700603 [2]: 3.13 µM (≈ 5.02 µg/mL)
MIC Gram- A. b 1318 (A. baumannii 1318): 3.13 µM (≈ 5.02 µg/mL)
MIC Gram- A. b 1337 (A. baumannii 1337): 3.13 µM (≈ 5.02 µg/mL)
toxicity / cytotoxicity against HEK293T cells (in words) (HEK293T cells): high toxicity
IC50 at 72 h (MTT cytotoxicity assay): 2.6 µM
viability at 72 h, 0.39 µM (MTT cytotoxicity assay; [4]): 85.8%
viability at 72 h, 0.78 µM (MTT cytotoxicity assay; [4]): 80%
viability at 72 h, 1.57 µM (MTT cytotoxicity assay; [4]): 70.9%
viability at 72 h, 3.13 µM (MTT cytotoxicity assay; [4]): 34.7%
viability at 72 h, 6.25 µM (MTT cytotoxicity assay; [4]): 22.3%
viability at 72 h, 12.5 µM (MTT cytotoxicity assay; [4]): 13.4%
viability at 72 h, 25 µM (MTT cytotoxicity assay; [4]): 5.83%
MICs against all tested bacterial strains [3]: 3.13 to 12.5 µM
MIC Gram+ MRSA USA 300 (MRSA USA 300): 3.13 µM (≈ 5.02 µg/mL)
MIC Gram+ MRSA ATCC 43300 (MRSA ATCC 43300): 3.13 µM (≈ 5.02 µg/mL)
MIC Gram+ MRSA 3393 (MRSA 3393): 3.13 µM (≈ 5.02 µg/mL)
MIC Gram- E. coli S (E. coli S): 12.5 µM (≈ 20 µg/mL)
MIC Gram- E. coli ATCC 25922 (E. coli ATCC 25922): 6.25 µM (≈ 10 µg/mL)

CC[C@H](C)[C@H](NC(=O)[C@H](CCCNC(=N)N)NC(=O)[C@H](CCCNC(=N)N)NC(=O)[C@H](CC(C)C)NC(=O)[C@H](Cc1ccccc1)NC(=O)[C@@H](N)CCCNC(=N)N)C(=O)N[C@@H](Cc1ccccc1)C(=O)N[C@@H](CCCCN)C(=O)N[C@@H](Cc1ccccc1)C(=O)N[C@@H](Cc1ccccc1)C(=O)N[C@@H](Cc1ccccc1)C(N)=O [HT5] (H-RFLRRIFKFFF-NH2)
HC10 (concentration inducing 10% hemolysis) (sheep red blood cells; red cells of sheep, 1 h): 12.5 µM
MIC Gram- K. p 3026 (K. pneumoniae 3026): 12.5 µM (≈ 19.7 µg/mL)
MIC Gram- K. p ATCC 700603 [2]: 12.5 µM (≈ 19.7 µg/mL)
MIC Gram- A. b 1318 (A. baumannii 1318): 3.13 µM (≈ 4.93 µg/mL)
MIC Gram- A. b 1337 (A. baumannii 1337): 3.13 µM (≈ 4.93 µg/mL)
toxicity / cytotoxicity against HEK293T cells (in words) (HEK293T cells): high toxicity
IC50 at 72 h (MTT cytotoxicity assay): 2.3 µM
viability at 72 h, 0.39 µM (MTT cytotoxicity assay; [4]): 85.5%
viability at 72 h, 0.78 µM (MTT cytotoxicity assay; [4]): 79.4%
viability at 72 h, 1.57 µM (MTT cytotoxicity assay; [4]): 62.7%
viability at 72 h, 3.13 µM (MTT cytotoxicity assay; [4]): 21%
viability at 72 h, 6.25 µM (MTT cytotoxicity assay; [4]): 22.6%
viability at 72 h, 12.5 µM (MTT cytotoxicity assay; [4]): 8.57%
viability at 72 h, 25 µM (MTT cytotoxicity assay; [4]): 10.4%
MICs against all tested bacterial strains [3]: 3.13 to 12.5 µM
MIC Gram+ MRSA USA 300 (MRSA USA 300): 3.13 µM (≈ 4.93 µg/mL)
MIC Gram+ MRSA ATCC 43300 (MRSA ATCC 43300): 3.13 µM (≈ 4.93 µg/mL)
MIC Gram+ MRSA 3393 (MRSA 3393): 3.13 µM (≈ 4.93 µg/mL)
MIC Gram- E. coli S (E. coli S): 6.25 µM (≈ 9.85 µg/mL)
MIC Gram- E. coli ATCC 25922 (E. coli ATCC 25922): 6.25 µM (≈ 9.85 µg/mL)

— article PMC10657444, “Design and evaluation of tadpole-like conformational antimicrobial peptides” (Communications Biology, 2023)
